Test results taken from ChEMBL document CHEMBL3045835, “Comparative study of conventional and microwave-assisted synthesis of some Schiff bases and their potential as antimicrobial agents” (2012).
≈ marks a conversion by molar mass, not a printed value.

Experiments:
Format in all cases: functional
[1] = test system: Pseudomonas aeruginosa; assay: Antibacterial activity against Pseudomonas aeruginosa MTCC 424 at 500 ug/ml after 18 hr by cup-plate method; conditions: MTCC 424, 18 h, read-out: DIZ
[2] = test system: Pseudomonas aeruginosa; assay: Antibacterial activity against Pseudomonas aeruginosa MTCC 424 at 200 ug/ml after 18 hr by cup-plate method; conditions: MTCC 424, 18 h, read-out: DIZ
[3] = test system: Pseudomonas aeruginosa; assay: Antibacterial activity against Pseudomonas aeruginosa MTCC 424 at 100 ug/ml after 18 hr by cup-plate method; conditions: MTCC 424, 18 h, read-out: DIZ
[4] = test system: Micrococcus luteus; assay: Antibacterial activity against Micrococcus luteus MTCC 1538 at 1500 ug/ml after 18 hr by cup-plate method; conditions: MTCC 1538, 18 h, read-out: DIZ
[5] = test system: Micrococcus luteus; assay: Antibacterial activity against Micrococcus luteus MTCC 1538 at 1000 ug/ml after 18 hr by cup-plate method; conditions: MTCC 1538, 18 h, read-out: DIZ
[6] = test system: Micrococcus luteus; assay: Antibacterial activity against Micrococcus luteus MTCC 1538 at 500 ug/ml after 18 hr by cup-plate method; conditions: MTCC 1538, 18 h, read-out: DIZ
[7] = test system: Micrococcus luteus; assay: Antibacterial activity against Micrococcus luteus MTCC 1538 at 200 ug/ml after 18 hr by cup-plate method; conditions: MTCC 1538, 18 h, read-out: DIZ
[8] = test system: Micrococcus luteus; assay: Antibacterial activity against Micrococcus luteus MTCC 1538 at 100 ug/ml after 18 hr by cup-plate method; conditions: MTCC 1538, 18 h, read-out: DIZ
[9] = test system: Bacillus pumilus; assay: Antibacterial activity against Bacillus pumilus MTCC 1456 at 1500 ug/ml after 18 hr by cup-plate method; conditions: MTCC 1456, 18 h, read-out: DIZ
[10] = test system: Bacillus pumilus; assay: Antibacterial activity against Bacillus pumilus MTCC 1456 at 1000 ug/ml after 18 hr by cup-plate method; conditions: MTCC 1456, 18 h, read-out: DIZ
[11] = test system: Bacillus pumilus; assay: Antibacterial activity against Bacillus pumilus MTCC 1456 at 500 ug/ml after 18 hr by cup-plate method; conditions: MTCC 1456, 18 h, read-out: DIZ
[12] = test system: Bacillus pumilus; assay: Antibacterial activity against Bacillus pumilus MTCC 1456 at 200 ug/ml after 18 hr by cup-plate method; conditions: MTCC 1456, 18 h, read-out: DIZ
[13] = test system: Bacillus pumilus; assay: Antibacterial activity against Bacillus pumilus MTCC 1456 at 100 ug/ml after 18 hr by cup-plate method; conditions: MTCC 1456, 18 h, read-out: DIZ
[14] = test system: Bacillus subtilis; assay: Antibacterial activity against Bacillus subtilis MTCC 441 at 1000 ug/ml after 18 hr by cup plate method; conditions: MTCC 441, 18 h, read-out: DIZ
[15] = test system: Bacillus subtilis; assay: Antibacterial activity against Bacillus subtilis MTCC 441 at 1500 ug/ml after 18 hr by cup plate method; conditions: MTCC 441, 18 h, read-out: DIZ
[16] = test system: Bacillus subtilis; assay: Antibacterial activity against Bacillus subtilis MTCC 441 at 500 ug/ml after 18 hr by cup plate method; conditions: MTCC 441, 18 h, read-out: DIZ
[17] = test system: Bacillus subtilis; assay: Antibacterial activity against Bacillus subtilis MTCC 441 at 200 ug/ml after 18 hr by cup plate method; conditions: MTCC 441, 18 h, read-out: DIZ
[18] = test system: Bacillus subtilis; assay: Antibacterial activity against Bacillus subtilis MTCC 441 at 100 ug/ml after 18 hr by cup plate method; conditions: MTCC 441, 18 h, read-out: DIZ
[19] = test system: Staphylococcus aureus; assay: Antibacterial activity against Staphylococcus aureus MTCC 1430 at 1500 ug/ml after 18 hr by cup-plate method; conditions: MTCC 1430, 18 h, read-out: DIZ
[20] = test system: Staphylococcus aureus; assay: Antibacterial activity against Staphylococcus aureus MTCC 1430 at 1000 ug/ml after 18 hr by cup-plate method; conditions: MTCC 1430, 18 h, read-out: DIZ
[21] = test system: Staphylococcus aureus; assay: Antibacterial activity against Staphylococcus aureus MTCC 1430 at 500 ug/ml after 18 hr by cup-plate method; conditions: MTCC 1430, 18 h, read-out: DIZ
[22] = test system: Staphylococcus aureus; assay: Antibacterial activity against Staphylococcus aureus MTCC 1430 at 200 ug/ml after 18 hr by cup-plate method; conditions: MTCC 1430, 18 h, read-out: DIZ
[23] = test system: Staphylococcus aureus; assay: Antibacterial activity against Staphylococcus aureus MTCC 1430 at 100 ug/ml after 18 hr by cup-plate method; conditions: MTCC 1430, 18 h, read-out: DIZ
[24] = test system: Penicillium chrysogenum; assay: Antifungal activity against Penicillium chrysogenum MTCC 161 after 24 hr by broth dilution method; conditions: MTCC 161, 24 h
[25] = test system: Aspergillus niger; assay: Antifungal activity against Aspergillus niger MTCC 2546 after 24 hr by broth dilution method; conditions: MTCC 2546, 24 h
[26] = test system: Escherichia coli; assay: Antibacterial activity against Escherichia coli MTCC 1573 after 24 hr by broth dilution method; conditions: MTCC 1573, 24 h
[27] = test system: Pseudomonas fluorescens; assay: Antibacterial activity against Pseudomonas fluorescens MTCC 2421 after 24 hr by broth dilution method; conditions: MTCC 2421, 24 h
[28] = test system: Pseudomonas aeruginosa; assay: Antibacterial activity against Pseudomonas aeruginosa MTCC 424 after 24 hr by broth dilution method; conditions: MTCC 424, 24 h
[29] = test system: Micrococcus luteus; assay: Antibacterial activity against Micrococcus luteus MTCC 1538 after 24 hr by broth dilution method; conditions: MTCC 1538, 24 h
[30] = test system: Bacillus pumilus; assay: Antibacterial activity against Bacillus pumilus MTCC 1456 after 24 hr by broth dilution method; conditions: MTCC 1456, 24 h
[31] = test system: Staphylococcus aureus; assay: Antibacterial activity against Staphylococcus aureus MTCC 1430 after 24 hr by broth dilution method; conditions: MTCC 1430, 24 h
[32] = test system: Bacillus subtilis; assay: Antibacterial activity against Bacillus subtilis MTCC 441 after 24 hr by broth dilution method; conditions: MTCC 441, 24 h
[33] = test system: Pseudomonas fluorescens; assay: Antibacterial activity against Pseudomonas fluorescens MTCC 2421 at 1000 ug/ml after 18 hr by cup-plate method; conditions: MTCC 2421, 18 h, read-out: DIZ
[34] = test system: Pseudomonas fluorescens; assay: Antibacterial activity against Pseudomonas fluorescens MTCC 2421 at 1500 ug/ml after 18 hr by cup-plate method; conditions: MTCC 2421, 18 h, read-out: DIZ
[35] = test system: Pseudomonas fluorescens; assay: Antibacterial activity against Pseudomonas fluorescens MTCC 2421 at 500 ug/ml after 18 hr by cup-plate method; conditions: MTCC 2421, 18 h, read-out: DIZ
[36] = test system: Pseudomonas fluorescens; assay: Antibacterial activity against Pseudomonas fluorescens MTCC 2421 at 200 ug/ml after 18 hr by cup-plate method; conditions: MTCC 2421, 18 h, read-out: DIZ
[37] = test system: Penicillium chrysogenum; assay: Antifungal activity against Penicillium chrysogenum MTCC 161 at 1500 ug/ml after 18 hr by cup-plate method; conditions: MTCC 161, 18 h, read-out: DIZ
[38] = test system: Penicillium chrysogenum; assay: Antifungal activity against Penicillium chrysogenum MTCC 161 at 1000 ug/ml after 18 hr by cup-plate method; conditions: MTCC 161, 18 h, read-out: DIZ
[39] = test system: Penicillium chrysogenum; assay: Antifungal activity against Penicillium chrysogenum MTCC 161 at 500 ug/ml after 18 hr by cup-plate method; conditions: MTCC 161, 18 h, read-out: DIZ
[40] = test system: Penicillium chrysogenum; assay: Antifungal activity against Penicillium chrysogenum MTCC 161 at 200 ug/ml after 18 hr by cup-plate method; conditions: MTCC 161, 18 h, read-out: DIZ
[41] = test system: Penicillium chrysogenum; assay: Antifungal activity against Penicillium chrysogenum MTCC 161 at 100 ug/ml after 18 hr by cup-plate method; conditions: MTCC 161, 18 h, read-out: DIZ
[42] = test system: Aspergillus niger; assay: Antifungal activity against Aspergillus niger MTCC 2546 at 1000 ug/ml after 18 hr by cup-plate method; conditions: MTCC 2546, 18 h, read-out: DIZ
[43] = test system: Aspergillus niger; assay: Antifungal activity against Aspergillus niger MTCC 2546 at 1500 ug/ml after 18 hr by cup-plate method; conditions: MTCC 2546, 18 h, read-out: DIZ
[44] = test system: Aspergillus niger; assay: Antifungal activity against Aspergillus niger MTCC 2546 at 500 ug/ml after 18 hr by cup-plate method; conditions: MTCC 2546, 18 h, read-out: DIZ
[45] = test system: Aspergillus niger; assay: Antifungal activity against Aspergillus niger MTCC 2546 at 100 ug/ml after 18 hr by cup-plate method; conditions: MTCC 2546, 18 h, read-out: DIZ
[46] = test system: Aspergillus niger; assay: Antifungal activity against Aspergillus niger MTCC 2546 at 200 ug/ml after 18 hr by cup-plate method; conditions: MTCC 2546, 18 h, read-out: DIZ
[47] = test system: Escherichia coli; assay: Antibacterial activity against Escherichia coli MTCC 1573 at 1500 ug/ml after 18 hr by cup-plate method; conditions: MTCC 1573, 18 h, read-out: DIZ
[48] = test system: Escherichia coli; assay: Antibacterial activity against Escherichia coli MTCC 1573 at 500 ug/ml after 18 hr by cup-plate method; conditions: MTCC 1573, 18 h, read-out: DIZ
[49] = test system: Escherichia coli; assay: Antibacterial activity against Escherichia coli MTCC 1573 at 1000 ug/ml after 18 hr by cup-plate method; conditions: MTCC 1573, 18 h, read-out: DIZ
[50] = test system: Escherichia coli; assay: Antibacterial activity against Escherichia coli MTCC 1573 at 200 ug/ml after 18 hr by cup-plate method; conditions: MTCC 1573, 18 h, read-out: DIZ
[51] = test system: Escherichia coli; assay: Antibacterial activity against Escherichia coli MTCC 1573 at 100 ug/ml after 18 hr by cup-plate method; conditions: MTCC 1573, 18 h, read-out: DIZ
[52] = test system: Pseudomonas fluorescens; assay: Antibacterial activity against Pseudomonas fluorescens MTCC 2421 at 100 ug/ml after 18 hr by cup-plate method; conditions: MTCC 2421, 18 h, read-out: DIZ
[53] = test system: Pseudomonas aeruginosa; assay: Antibacterial activity against Pseudomonas aeruginosa MTCC 424 at 1500 ug/ml after 18 hr by cup-plate method; conditions: MTCC 424, 18 h, read-out: DIZ
[54] = test system: Pseudomonas aeruginosa; assay: Antibacterial activity against Pseudomonas aeruginosa MTCC 424 at 1000 ug/ml after 18 hr by cup-plate method; conditions: MTCC 424, 18 h, read-out: DIZ

MIC [24]: 400 µg/mL (≈ 1620 µM)
MIC [25]: 200 µg/mL (≈ 812 µM)
MIC [26]: 200 µg/mL (≈ 812 µM)
MIC [27]: 300 µg/mL (≈ 1220 µM)
MIC [28]: 300 µg/mL (≈ 1220 µM)
MIC [29]: 200 µg/mL (≈ 812 µM)
MIC [30]: 200 µg/mL (≈ 812 µM)
MIC [31]: 400 µg/mL (≈ 1620 µM)
MIC [32]: 50 µg/mL (≈ 203 µM)
Compound: Cc1cccnc1/N=C/c1cccc2ccccc12
zone of inhibition at 500 µg/mL [1]: 14 mm
zone of inhibition at 200 µg/mL [2]: 13 mm
zone of inhibition at 100 µg/mL [3]: 12 mm
zone of inhibition at 1500 µg/mL [4]: 26 mm
zone of inhibition at 1000 µg/mL [5]: 24 mm
zone of inhibition at 500 µg/mL [6]: 22 mm
zone of inhibition at 200 µg/mL [7]: 18 mm
zone of inhibition at 100 µg/mL [8]: 16 mm
zone of inhibition at 1500 µg/mL [9]: 20 mm
zone of inhibition at 1000 µg/mL [10]: 19 mm
zone of inhibition at 500 µg/mL [11]: 18 mm
zone of inhibition at 200 µg/mL [12]: 16 mm
zone of inhibition at 100 µg/mL [13]: 13 mm
zone of inhibition at 1000 µg/mL [14]: 18 mm
zone of inhibition at 1500 µg/mL [15]: 19 mm
zone of inhibition at 500 µg/mL [16]: 16 mm
zone of inhibition at 200 µg/mL [17]: 13 mm
zone of inhibition at 100 µg/mL [18]: 12 mm
zone of inhibition at 1500 µg/mL [19]: 20 mm
zone of inhibition at 1000 µg/mL [20]: 18 mm
zone of inhibition at 500 µg/mL [21]: 15 mm
zone of inhibition at 200 µg/mL [22]: 13 mm
zone of inhibition at 100 µg/mL [23]: 10 mm
zone of inhibition at 1000 µg/mL [33]: 23 mm
zone of inhibition at 1500 µg/mL [34]: 24 mm
zone of inhibition at 500 µg/mL [35]: 22 mm
zone of inhibition at 200 µg/mL [36]: 20 mm
zone of inhibition at 1500 µg/mL [37]: 18 mm
zone of inhibition at 1000 µg/mL [38]: 17 mm
zone of inhibition at 500 µg/mL [39]: 15 mm
zone of inhibition at 200 µg/mL [40]: 13 mm
zone of inhibition at 100 µg/mL [41]: 11 mm
zone of inhibition at 1000 µg/mL [42]: 20 mm
zone of inhibition at 1500 µg/mL [43]: 21 mm
zone of inhibition at 500 µg/mL [44]: 19 mm
zone of inhibition at 100 µg/mL [45]: 13 mm
zone of inhibition at 200 µg/mL [46]: 16 mm
zone of inhibition at 1500 µg/mL [47]: 19 mm
zone of inhibition at 500 µg/mL [48]: 15 mm
zone of inhibition at 1000 µg/mL [49]: 16 mm
zone of inhibition at 200 µg/mL [50]: 14 mm
zone of inhibition at 100 µg/mL [51]: 13 mm
zone of inhibition at 100 µg/mL [52]: 17 mm
zone of inhibition at 1500 µg/mL [53]: 18 mm
zone of inhibition at 1000 µg/mL [54]: 16 mm
